The values that follow are results of earlier work, collected in EP0413839A1, “GHRH analogs” (The Administrators of The Tulane Educational Fund, priority 1989, dated 1991).

No end group written: not given here.

For the data set the following is noted: percent of the potency of hGRF.
Regarding “hGRF(1-23)-NH₂ (YADAIFTNSYRKVLGQLSARKLL-NH2; UniProt P01286 32-54, looked up, fragment) [shortened hGRF fragment with amidated C-terminus]”, the “potency of hGRF” value is reported as 0.24%.
As to “hGRF(1-37)-NH₂ (YADAIFTNSYRKVLGQLSARKLLQDIMSRQQGESNQE-NH2; UniProt P01286 32-68, looked up, fragment) [fragment of human growth hormone releasing factor terminated with an amide group]”, the “potency of hGRF” value is “at least 50%”.
Take “hGRF(1-27)-NH₂ (YADAIFTNSYRKVLGQLSARKLLQDIM-NH2; UniProt P01286 32-58, looked up, fragment) [shortened hGRF fragment with amidated C-terminus]”: the “potency of hGRF” value was 1.12%.
Turning to hGRF(1-29)OH, the “potency of hGRF” value is recorded as 12.6%.
